System: peripheral blood leukocytes and platelets from CVD patients
Test: CVD patient whole blood incubated with RvD2n-3 DPA or RvD5n-3 DPA then PAF, flow cytometry
Format: cell-based, human
Details: 15 min then PAF 30 min
Protocol: (§1) Whole blood was incubated with RvD2n-3 DPA or RvD5n-3 DPA (0.1 nM, 1 nM or 10 nM) or vehicle (PBS containing 0.01% EtOH) for 15 min then with PAF (100 ng/ml) for 30 min (37° C.). Expression of CD62P on (A) neutrophils (B) monocytes and CD11b on (C) neutrophils and (D) monocytes was investigated using flow cytometry and fluorescently labelled antibodies. Results are mean±s.em. and expressed as percentage of PAF incubated cells. n=9 patients per interval. * p<0.05 vs Veh group using one-sample t test, followed by Sidak correction of p values.
as §1, with “labeled” for “labelled”, “group.” for “interval.”, “PAF” for “Veh”, “Wilcoxon Signed Rank Test.” for “one-sample t test, followed by Sidak correction of p values.”
After stimulation, samples were washed twice with PBS for 12 min at 800×g. Samples were stained for flow cytometry as described below.
Whole blood was incubated with lineage-specific markers for 45 min (4° C., in DPBS containing 0.02% BSA). The following anti-human antibodies were used: VioBlue-anti-CD41, PE-Cy5-anti-CD62P, Brilliant Violet 711-anti-CD11b, APC-Cy7-anti-CD16, Alexa Fluor 647-anti-CD14. After staining, red blood cells were lysed using Whole Blood Lysing Reagent Kit, according to the manufacturer's instructions. Data was collected using a flow cytometer and analysis was conducted using appropriate software.

## CC/C=C\C[C@H](O)/C=C/C=C\C/C=C\C=C\[C@@H](O)CCCCCC(=O)O [RvD5n-3 DPA, 7,17-trihydroxy-8E,10,13,15E,19Z-docosapentaenoic acid]
  expression of CD11b on monocytes: decreased
  expression of CD11b on neutrophils: decreased
  platelet-monocyte aggregates measured as CD62P and CD41 expression: decreases
  platelet-neutrophil aggregates measured as CD62P and CD41 expression: decreases

— patent publication US12616672B2, “Methods for assessing risk of cardiovascular disease and methods and compounds for use in treating or preventing cardiovascular disease” (Queen Mary University of London, priority 2017, dated 2026)
